≈ marks a conversion by molar mass, not a printed value. Structures can show the parent of a compound that is named as a salt. Where two headings read alike, the source gives them in different places.
Legend:
SC-1 = assay type: cell-based; conditions: mouse, sc-1 cells
HIV = HIV assay in MT-4 cells; assay type: cell-based; conditions: Virus HIV, Cell-line MT-4; read-out: ID50 (the source's name)
Description: (§1) This compound was evaluated for anti-retroviral activity by the methods described in Examples 43 and 44. AZT controls were run simultaneously to confirm the validity of the test.

R-MuLV = assay: UV-XC plaque assay in SC-1 cells, R-MuLV; assay type: cell-based, murine leukemia virus
Description: (§2) The compounds were evaluated for antiviral activity against murine leukemia virus (MuLV) strains using the UV-XC plaque assay (Rowe, et al., Virology, 42:1136, 1970).
(§3) The MuLV strains were grown in feral mouse cells (SC-1) and used for antiviral tests using the UV-XC plaque assay. Briefly, SC-1 cells are grown as monolayers in 4-well tissue culture plates and inoculated with approximately 50-100 plaque forming units of MuLV in 0.5 ml of 5% EMEM containing 20 µg/ml DEAE/Dextran. After 1 hour adsorbtion, the inoculum is removed and 5 ml of 5% EMEM containing three-fold dilutions of the appropriate drug are added. Five days later, the cultures are UV-irradiated with an ultraviolet lamp and rat XC sarcoma cells are added to the cultures. Three-four days after UV-irradiation, the cell cultures are stained with Giemsa stain and the plaques are enumerated. Antiviral activity is expressed in terms of the reduction in the mean number of UX-XC plaques counted in the drug treated, virus-infected cultures compared with mean number of plaques counted in untreated, virus-infected control cultures.

MuLV = assay: UV-XC plaque assay in SC-1 cells, MuLV; assay type: cell-based, murine leukemia virus; conditions: Virus MuLV, Cell-line SC-1; read-out: ID50 (the source's name)
Description: as §2, §3, §1

HIV (LAV strain) = assay: HIV in vitro assay in CEM cells, p-24 gag protein ELISA; assay type: cell-based
Description: The HIV in vitro assay described as follows was used: The anti-HIV/LAV activity is measured in cultures of CEM-F cells.

Herpes simplex virus - 2 = assay: Survival of mice inoculated with Herpes simplex virus-2, 21 day protocol; assay type: in vivo
Description: A preferred example of one of these compounds, known as (S)-HPMPA (Formula 4') was disclosed by DeClercq, et al., in Nature, 1986, 323, pp. 464-467 and earlier by Holy, et al., Nucleic Acids Research, Symposium Series No. 14, 1984, pp. 277-278. Phosphonate compounds which are HPMPA analogs are described in South African Patent 1987/8607. […] In a 21 day protocol 30% of a group of animals treated i.p. with 50 mg/kg/day of (S)-HPMPA survived. [drawing 4]

HSV-1 = assay: Plaque reduction assay in vero cells, HSV-1; assay type: cell-based, Herpes simplex virus; conditions: Human alphaherpesvirus 1, 48 hour incubation, read-out: ID50 HVS-1
Description: (§4) Herpes simplex virus (HSV) strains were grown and titered at 37°C in vero cells (African Green Monkey Kidney cells) and used for virus work before the tenth passage.
(§5) Cells were grown and maintained in Earle's Minimum Essential Medium (EMEM), Gibco Laboratories, supplemented with 0.75% sodium bicarbonate, 2mM 1-glutamine, Pen-strep. and 5-10% fetal calf serum.
(§6) The titer of HSV strains is determined by a plaque titration method (Roizman and Roane, Virology, 115:75-79, 1961). Tissue culture 24-well petri dishes are seeded with cells and used for assays when approximately 75% monolayer. Volumes (0.1ml) of logarithmic dilutions of the virus strain are inoculated onto each of triplicate wells, and absorbed for one hour with intermittent shaking. […] The number of plaques is counted, the triplicate is averaged, and the number of plaque-forming units per ml is calculated.
(§7) The compounds are tested for activity against the herpes simplex stains using a stock solution of each compound freshly prepared. […] The antiviral efficacy of each compound is determined using the plaque reduction assay described above. […] After a 48-hour incubation period, at 37°C in a 5% CO2 atmosphere, the overlay medium is removed, the cells are stained as described above, and plaques are counted. The counts of triplicate wells are averaged, and the number of plaques in the presence of each drug dilution are calculated. […]

[1] = test system: Herpes simplex virus-1 (HL-34 strain); assay: HSV-1 systemic infection in mice, survival at 21 days; assay type: in vivo; conditions: i.p.; for Survival: BID for 5 consecutive days, from 3 hours post-infection, 21 days
Description: Groups of ten mice were inoculated intraperitoneally with from 200 to 600 PFU/0.2ml of Herpes simplex virus-1 (HL-34 strain). Different doses of test compound were administered to separate groups of animals on a BID basis for five consecutive days commencing three hours after inoculation. Treatment was by an intraperitoneal route. The experiment was teminated 21 days post inoculation and the number of survivals in each group was counted. The mean survival time (MST, days) was calculated.

HSV-2 = assay: Plaque reduction assay in vero cells, HSV-2; assay type: cell-based, Herpes simplex virus; conditions: Human alphaherpesvirus 2, 48 hour incubation, read-out: ID50 HVS-2
Description: as §4, §5, §6, §7

[2] = Murine leukemia virus, SC1, UV-XC plaque assay, SC-1 cells, read-out: ID50 R-MuLV

In the case of “9-[2,3-Dideoxy-2,3-didehydro-4-β-phosphonomethoxy-β-D-erythrofuranosyl]adenine ammonium salt [Example 50]”, the CC50 (SC-1) is reported as > 100 µM, the IC50 (HIV) is reported as 1.5 µM and the IC50 (R-MuLV; Virus MuLV-R, Cell-line SC-1, read-out: ID50 (the source's name)) is reported as 0.01 µM. For the same compound, the IC50 (MuLV) was < 0.1 µM and the IC50 (HIV (LAV strain); Virus HIV, Cell-line CEM, read-out: ID50 (the source's name)) was 45 µM.
With `Nc1ncnc2c1ncn2C[C@@H](CO)OCP(=O)(O)O` [(S)-HPMPA] the “activity in mice inoculated with Herpes simplex virus - 2 (in words)” value (Herpes simplex virus - 2; in applicant's hands) was “only slightly active” and the survived (Herpes simplex virus - 2; mice inoculated with Herpes simplex virus - 2, i.p. 50 mg/kg/day, 21 day protocol) was 30%.
`Nc1nc2c(ncn2COCCO)c(=O)[nH]1` [ACV, Acyclovir, reference compound] was tested, and the IC50 (HSV-1) was 0.5 µg/mL (≈ 2.22 µM), the Survival ([1]; Dose 100 mg/kg/d) was 7/10 and the Survival ([1]; Dose 200 mg/kg/d) was 6/7. The IC50 (HSV-2) was 0.5 µg/mL (≈ 2.22 µM).
`Cc1cn([C@H]2C[C@H](N=[N+]=[N-])[C@@H](CO)O2)c(=O)[nH]c1=O` [AZT, reference compound] showed an IC50 (R-MuLV; [2]) of 0.05 µg/mL and an IC50 (HIV (LAV strain); Human immunodeficiency virus 1, CCRF-CEM, 192 h, read-out: ID50 HIV) of 0.1 µg/mL.
With `Nc1nc2c(ncn2COCOCP(=O)(O)O)c(=O)[nH]1` [Compound 8, 9-[3-(Phosphonomethoxy)methoxymethyl]guanine disodium salt] the IC50 (HSV-1) was 2.6 µg/mL, the Survival ([1]; Dose 10 mg/kg/d) was 3/10 and the Survival ([1]; Dose 100 mg/kg/d) was 9/10. For the same compound, the Survival ([1]; Dose 300 mg/kg/d) was 10/10, the “activity compared with ACV in vivo (in words)” value ([1]; HSV-1 systemic infection in mice) was “equally as active as ACV” and the IC50 (HSV-2) was 11 µg/mL.
With `Cc1cn(C2C=CC(OCP(=O)(O)O)O2)c(=O)[nH]c1=O` [Compound 25, 1-[2,3-Dideoxy-2,3-didehydro-4-phosphonomethoxy-beta-D-erythrofuranosyl]thymine disodium salt] the IC50 (R-MuLV; [2]) was 0.3 µg/mL and the IC50 (HIV (LAV strain); Human immunodeficiency virus 1, CCRF-CEM, 192 h, CEM-F cells, 8 days, p-24 gag protein ELISA, read-out: ID50 HIV) was 1.8 µg/mL.
